Data: patent publication EP0565377B1, “Therapeutic agents for use in the treatment of Parkinson's Disease” (Kyowa Hakko Kogyo Co., Ltd., priority 1992, dated 1993)

Tests used:
[1] = test system: Parkinson's Disease Model in Mouse; assay: Effect on locomotor activity of Parkinson's disease model in mouse (MPTP-treated mice, Automex-II horizontal activity); type: in vivo, male C57BL/6 mice
Procedure: 1-Methyl-4-phenyl-1,2,3,6-tetrahydropyridine (MPTP) causes symptoms of Parkinson's disease in humans [Science, 219, 979 (1983)]. It is reported that an experimental Parkinson's disease model was obtained by administering MPTP to mice [Science, 224, 1451 (1984)]. If a compound is effective on the experimental Parkinson's disease model in mouse, the compound can be expected to have a therapeutic effect on Parkinson's disease.
The experiment was performed by using several groups of 7-weeks-old male C57BL/6 mice (weighing 20 to 21 g, Japan SLC), each group consisting of 8 mice. MPTP (Aldrich Chemical Co., Inc.) dissolved in a physiological saline solution (Otsuka Pharmaceutical Co., Ltd.) was intraperitoneally administered to each mouse once a day for five consecutive days at a dose of 30 mg/kg. A test compound was suspended in injectable distilled water (Otsuka Phamaceutical Co., Ltd.) containing Tween 80 [polyoxyethylene (20) sorbitan monooleate]. L-DOPA (Kyowa Hakko Kogyo Co., Ltd.) was suspended in 0.3% CMC (sodium carboxylmethylcellulose). Thirty minutes after the final MPTP administration, the test compound suspensions and the control suspension [injectable distilled water (Otsuka Pharmaceutical Co., Ltd.) containing Tween 80] containing no test compound were orally administered to separate groups of the mice (0.1 ml per 10 g of body weight). The amount of active movements (horizontal activity) of each mouse was measured by using Automex-II (Columbus Instruments International Corp.) for the period of 30 minutes starting 30 minutes after the administration of the test compound. The effect of the compounds was evaluated by comparing the average counts of the active movements of the test compound-administered groups with those of the control groups. A significant difference test was performed by using Student's t-test.

[2] = test system: Haloperidol-Induced Catalepsy; assay: Effect on haloperidol-induced catalepsy; type: in vivo, male ddY mice; conditions: Table 4-1, test compound 10 mg/kg orally; for inhibition in vivo at 10 mg/kg: Mus musculus, po, 1 h, rate of decrease in total score based on control group, read-out: Remission Rate (%); for Number of the Animals Showing Remission: of 5 mice, catalepsy score not more than 4 points; for Total Score: total catalepsy score of 5 mice (25 points at the full), 0.3% CMC control 25
Procedure: The experiment was performed by using several groups of 5-weeks-old male ddY mice (weighing 22 to 24 g, Japan SLC), each group consisting of 5 mice. Haloperidol (Janssen Pharmaceutica) suspended in 0.3% CMC was intraperitoneally administered to each mouse at a dose of 1.0 mg/kg. Test compounds were suspended in 0.3% CMC or in injectable distilled water (Otsuka Pharmaceutical Co., Ltd.) containing Tween 80. L-DOPA (Kyowa Hakko Kogyo Co., Ltd.) and benserazide hydrochloride (Kyowa Hakko Kogyo Co., Ltd.) were suspended in 0.3% CMC. One hour after the haloperidol administration, the test compound suspensions and the control suspension [0.3% CMC or injectable distilled water (Otsuka Pharmaceutical Co., Ltd.) containing Tween 80] containing no test compound were orally administered to separate groups of the mice (0.1 ml per 10 g of body weight). One hour after the administration of the test compound, the forelimbs of each mouse and subsequently the hindlimbs of the same mouse were placed on a 4.5 cm-high, 1.0 cm-wide bar and catalepsy was estimated. All of the test compounds were orally administered at a dose of 10 mg/kg, and L-DOPA (100 mg/kg) and benserazide (25 mg/kg) were intraperitoneally administered together as a control experiment. The catalepsy score and the standard of judgment are shown below.
The effect of the compounds was evaluated by the total of the catalepsy scores of five mice in each group (25 points at the full). The groups wherein the total score was not more than 20 points were estimated to be effective. The number of the animals showing remission against catalepsy is the number of the mice for which the catalepsy score was not more than 4 points.

dd-strain male mice = assay: Acute toxicity test (minimum lethal dose, oral); type: in vivo; conditions: oral administration, mortality seven days after administration, three mice per group
Procedure: Test compounds were orally administered to groups of dd-strain male mice weighing 20±1 g, each group consisting of three mice. Seven days after the administration, minimum lethal dose (MLD) of each compound was determined by observing the mortality.

Which results are given for `CCCn1c(=O)c2c(nc(/C=C/c3ccccc3)n2C)n(CCC)c1=O` [Compound 3, (E) -7-methyl-1,3-dipropyl-8-styrylxanthine]?
Amount of Active Movements (average count ± S.E.M) ([1]; Table 3-2, test compound 40 mg/kg orally, normal control 2185 ±156.2, MPTP control 38 ± 24.2): 228 ± 82.6 count; inhibition in vivo at 10 mg/kg [2]: 20%; Number of the Animals Showing Remission [2]: 4; Total Score [2]: 20 points; MLD (dd-strain male mice): > 300 mg/kg

For `CCn1c(=O)c2c(nc(/C=C/c3cc(OC)c(OC)c(OC)c3)n2C)n(CC)c1=O` [Compound 4, (E)-1,3-diethyl-7-methyl-8-(3,4,5-trimethoxystyryl)xanthine], which “Amount of Active Movements (average count ± S.E.M)” value ([1]; Table 3-2, test compound 10 mg/kg orally, normal control 2185 ±156.2, MPTP control 38 ± 24.2) is on record?
The value was 961 ±164.7 count.

And the inhibition in vivo at 10 mg/kg [2]?
Its inhibition in vivo at 10 mg/kg is 20%.

And the “Number of the Animals Showing Remission” value [2]?
The value was 4.

And the “Total Score” value [2]?
The value was 20 points.

And the “MLD” value (dd-strain male mice)?
The value was > 300 mg/kg.

How did the “Amount of Active Movements (average count ± S.E.M)” value ([1]; Table 3-5, test compound 40 mg/kg orally, normal control 2252 ±210.1, MPTP control 18 ± 8.4) turn out when `C=CCn1c(=O)c2nc(/C=C/c3cc(OC)c(OC)c(OC)c3)[nH]c2n(CC=C)c1=O` [Compound 11, (E)-1,3-diallyl-8-(3,4,5-trimethoxystyryl) xanthine] was run?
Its value is 20 ± 7.1 count.

What about the inhibition in vivo at 10 mg/kg [2] of the same compound?
Its inhibition in vivo at 10 mg/kg is 20%.

What about the “Number of the Animals Showing Remission” value [2] of the same compound?
The value was 3.

And the “Total Score” value [2]?
The value was 20 points.

What about the “MLD” value (dd-strain male mice) of the same compound?
The value was > 300 mg/kg.
